Results on 24 compounds are retold here after patent publication US9434711B2 (Janssen Pharmaceutica, NV, priority 2007, dated 2016).

pIC50: −log10 of the molar value. Like-named read-outs stand apart in the source and are kept apart here.

Assay [1] has as its target canine TRPM8 (Canis lupus familiaris, UniProt Q1A7N1). Nature of the assay: In Vitro Canine TRPM8 Functional Assay (Ca2+ fluorescence, icilin activation). Format: cell-based. To be noted: for pIC50: HEK293 cells stably expressing canine TRPM8, icilin activation, eight-point dose-response, read-out: IC50; for inhibition at 0.2 µM: read-out: % Inh @ 0.2. The gist of the method: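 HEK293 cells stably expressing canine TRPM8 were loaded with Calcium 3 dye (35 min at 37 °C, then 25 min at room temperature). Compound was added and Ca2+ fluorescence was read for 5 min before icilin at a concentration giving about 80% maximal response. EC50/IC50 came from eight-point dose-response curves, quadruplicate wells.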

Assay [2] has as its system Male Sprague Dawley rats. Nature of the assay: Chronic Constriction Injury (CCI)-Induced Model of Neuropathic Pain, Acetone-Induced Hypersensitivity. The conditions noted are these: Rattus norvegicus, po, HPbCD, Na salt form, read-out: Percent Inhibition; for inhibition in vivo at 30 mg/kg: 30 mg/kg p.o. The assay is classed as in vivo, rat. The source says:
Male Sprague Dawley rats (225-450 g; n=5-8/treatment) were used to evaluate the ability of selected compounds of the formula (I) to reverse CCI-induced cold hypersensitivity. Four loose ligatures of 4-0 chromic gut were surgically placed around the left sciatic nerve under inhalation anesthesia as described by Bennett et al (Bennett G J, Xie Y K. Pain 1988, 33(1): 87-107). Fourteen to 35 days following CCI surgery, subjects were placed in elevated observation chambers containing wire mesh floors and five applications of acetone (0.05 mL/application separated by approximately 5 minutes) were spritzed onto the plantar surface of the paw using a multidose syringe. An abrupt withdrawal or lifting of the paw was considered a positive response. The number of positive responses was recorded for each rat over the five trials. Following baseline withdrawal determinations, compounds of formula (I) are administered in an appropriate vehicle, such as hydroxypropyl-β-cyclodextrin (HP β CD), methylcellulose, Methocel, 10% Solutol, or H2O, or the like, by the appropriate route, i.p. or p.o. […] Results are presented as a percent inhibition of […], which was calculated for each subject as [1−(test compound withdrawals/pre-test withdrawals)]×100 and then averaged by treatment.

Setting [3] is: compound at 0.2 μM, canine TRPM8, icilin activation.
The mark [4] stands for this setting: compound at 0.5 μM, canine TRPM8, icilin activation, read-out: % Inh @ 0.5.
Where [5] appears, read: 0.2 μM compound, HEK293 cells stably expressing canine TRPM8, icilin activation.

canine TRPM8, sequence (Q1A7N1 1-1104): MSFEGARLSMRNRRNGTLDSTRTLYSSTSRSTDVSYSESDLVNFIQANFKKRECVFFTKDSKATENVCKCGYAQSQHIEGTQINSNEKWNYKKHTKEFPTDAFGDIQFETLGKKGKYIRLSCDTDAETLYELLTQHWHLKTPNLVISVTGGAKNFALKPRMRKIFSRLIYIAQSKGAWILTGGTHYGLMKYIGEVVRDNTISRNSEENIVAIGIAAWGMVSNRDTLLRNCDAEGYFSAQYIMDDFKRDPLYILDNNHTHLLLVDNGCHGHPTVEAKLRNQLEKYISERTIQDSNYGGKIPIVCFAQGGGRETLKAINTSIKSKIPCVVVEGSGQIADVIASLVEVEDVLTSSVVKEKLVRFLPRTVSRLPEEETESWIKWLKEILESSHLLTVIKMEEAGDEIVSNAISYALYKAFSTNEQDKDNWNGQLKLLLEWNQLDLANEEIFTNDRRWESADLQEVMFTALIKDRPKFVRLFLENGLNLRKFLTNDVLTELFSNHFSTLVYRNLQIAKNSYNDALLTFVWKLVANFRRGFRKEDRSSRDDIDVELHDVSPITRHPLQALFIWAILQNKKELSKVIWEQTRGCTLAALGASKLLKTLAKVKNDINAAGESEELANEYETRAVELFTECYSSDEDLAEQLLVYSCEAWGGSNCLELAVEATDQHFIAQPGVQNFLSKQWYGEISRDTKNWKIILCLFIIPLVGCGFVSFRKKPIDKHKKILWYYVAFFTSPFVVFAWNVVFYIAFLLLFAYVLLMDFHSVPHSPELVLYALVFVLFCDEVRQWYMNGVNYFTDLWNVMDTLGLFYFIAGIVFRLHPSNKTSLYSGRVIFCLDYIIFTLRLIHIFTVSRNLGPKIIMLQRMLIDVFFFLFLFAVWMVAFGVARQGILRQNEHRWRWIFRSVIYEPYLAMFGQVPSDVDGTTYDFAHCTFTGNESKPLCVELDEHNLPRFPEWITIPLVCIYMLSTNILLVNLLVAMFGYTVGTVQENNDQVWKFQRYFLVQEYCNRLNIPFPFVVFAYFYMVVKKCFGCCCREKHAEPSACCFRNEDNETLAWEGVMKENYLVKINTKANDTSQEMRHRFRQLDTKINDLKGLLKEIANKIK

Turning to `Cc1c(N(Cc2ccc(F)cc2)S(=O)(=O)c2ccc(C(=O)O)cc2)sc2ccccc12` [Compound 487, N-(3-Methyl-benzo[b]thiophen-2-yl)-N-(4-fluoro-benzyl)-4-carboxy-benzenesulfonamide], the pIC50 in assay [1] was 8.70. For the same compound, in assay [1] (setting [3]), the inhibition at 0.2 µM amounted to 101%. Moreover, the inhibition in vivo at 10 mg/kg in assay [2] (3 h, 10 mg/kg p.o., pretreatment 3 hr) came out at 43%. In assay [2] (3 h, pretreatment 3 hr), the inhibition in vivo at 30 mg/kg is 66%.
With `Cc1c(N(Cc2ccc(OC(F)F)cc2)S(=O)(=O)c2ccc(C(=O)O)cc2)sc2ccccc12` [Compound 490, N-(3-Methyl-benzo[b]thiophen-2-yl)-N-(4-difluoromethoxy-benzyl)-4-carboxy-benzenesulfonamide], the pIC50 in assay [1] was 9.00. Besides, in assay [1] (setting [3]), the inhibition at 0.2 µM is 101%. In addition, the inhibition in vivo at 30 mg/kg in assay [2] (1 h, pretreatment 1 hr) stood at 23%.
As for `Cc1c(N(Cc2ccc3c(c2)OC(F)(F)O3)S(=O)(=O)c2ccc(C(=O)O)cc2)sc2ccccc12` [Compound 524, N-(3-Methyl-benzo[b]thiophen-2-yl)-N—(C-(2,2-difluoro-benzo[1,3]dioxol-5-yl)-methyl)-4-carboxy-benzenesulfonamide], the inhibition at 0.2 µM in assay [1] (setting [3]) is 102%. Also, the inhibition in vivo at 30 mg/kg in assay [2] (3 h, pretreatment 3 hr) was found to be 46%.
For the compound `CS(=O)(=O)N(Cc1ccc(F)c(C(F)(F)F)c1)c1sc2ccccc2c1Br` [Compound 157, N-(3-Bromo-benzo[b]thiophen-2-yl)-N-(4-fluoro-3-trifluoromethyl-benzyl)-methanesulfonamide], the pIC50 in assay [1] was 7.85. Further, the inhibition at 0.2 µM in assay [1] (setting [3]) amounted to 100%.
With `COC(=O)c1ccc(S(=O)(=O)N(Cc2ccc(F)c(C(F)(F)F)c2)c2sc3ccccc3c2C2CCC2)cc1` [Compound 696, N-(3-Cyclobutyl-benzo[b]thiophen-2-yl)-N-(4-fluoro-3-trifluoromethyl-benzyl)-4-carbomethoxy-benzenesulfonamide], the pIC50 in assay [1] was 7.64. Further, the inhibition at 0.2 µM in assay [1] (setting [3]) stood at 97%.
The like results for `CS(=O)(=O)N(Cc1ccc(F)c(C(F)(F)F)c1)c1sc2ccccc2c1CO` [Compound 215, N-(4-Fluoro-3-trifluoromethyl-benzyl)-N-(3-hydroxymethyl-benzo[b]thiophen-2-yl)-methanesulfonamide] were, in that order, 8.22 and 101%.
Taken in the same sequence, the figures for `O=C(O)c1cccc(S(=O)(=O)N(Cc2ccc(F)c(C(F)(F)F)c2)c2cc3ccccc3s2)c1` [Compound 295, N-(Benzo[b]thiophen-2-yl)-N-(4-fluoro-3-trifluoromethyl-benzyl)-3-carboxy-benzenesulfonamide] were 7.48 and 81%.
The like results for `CCN(CC)c1ccc(S(=O)(=O)N(CCC2CC2)c2sc3ccccc3c2C)cc1` [Compound 739, N-(3-Methyl-benzo[b]thiophen-2-yl)-N-(cyclopropyl-ethyl)-4-diethylamino-benzenesulfonamide] were, in that order, 7.63 and 90%.
With `O=C(O)c1ccccc1S(=O)(=O)N(Cc1ccc(F)c(C(F)(F)F)c1)c1sc2ccccc2c1Br` [Compound 298, N-(3-Bromo-benzo[b]thiophen-2-yl)-N-(4-fluoro-3-trifluoromethyl-benzyl)-2-carboxy-benzenesulfonamide], the inhibition at 0.2 µM in assay [1] (setting [3]) turned out to be 18%.
In the case of `CCS(=O)(=O)N(Cc1ccc(F)c(C(F)(F)F)c1)c1sc2ccccc2c1Cl` [Compound 190, N-(3-Chloro-benzo[b]thiophen-2-yl)-N-(4-fluoro-3-trifluoromethyl-benzyl)-ethanesulfonamide], the pIC50 in assay [1] is 7.82. Also, in assay [1] (setting [3]), the inhibition at 0.2 µM was 101%.
Turning to `CNc1ccc(S(=O)(=O)N(CCC2CC2)c2sc3ccccc3c2Br)cc1Br` [Compound 692, 3-Bromo-N-(3-bromo-benzo[b]thiophen-2-yl)-N-(2-cyclopropyl-ethyl)-4-methylamino-benzenesulfonamide], the pIC50 in assay [1] is 8.14. Further, the inhibition at 0.2 µM in assay [1] (setting [3]) was found to be 101%.
In the case of `O=S(=O)(c1ccccc1)N(CCN1CCOCC1)c1sc2ccccc2c1Br` [Compound 237, N-(3-Bromo-benzo[b]thiophen-2-yl)-N-(2-morpholin-4-yl-ethyl)-benzenesulfonamide], in assay [1], the pIC50 was 7.61. Moreover, in assay [1] (setting [3]), the inhibition at 0.2 µM was determined as 87%. For the same compound, the inhibition at 0.5 µM in assay [1] (setting [4]) is 92%.
For the compound `CCCCN(c1sc2ccccc2c1Br)S(=O)(=O)c1ccc(-c2noc(=S)[nH]2)cc1` [Compound 481, N-(3-Bromo-benzo[b]thiophen-2-yl)-N-(butyl)-4-(5-thioxo-4,5-dihydro-[1,2,4]oxadiazol-3-yl)-benzenesulfonamide], the inhibition at 0.2 µM in assay [1] (setting [3]) was 69%.
For the compound `Cc1c(N(Cc2ccc(F)c(C(F)(F)F)c2)S(=O)(=O)CCCO)sc2ccccc12` [Compound 699, N-(4-Fluoro-3-trifluoromethyl-benzyl)-N-(3-methyl-benzo[b]thiophen-2-yl)-3-hydroxy-propanesulfonamide], the negative-log IC50 (pIC50) in assay [1] was 8.22. In addition, the inhibition at 0.2 µM in assay [1] (setting [3]) turned out to be 103%.
For `COC(=O)c1cccc(S(=O)(=O)N(Cc2ccc(F)c(C(F)(F)F)c2)c2sc3ncccc3c2Cl)c1` [Compound 816, N-(3-Chloro-thieno[2,3-b]pyridin-2-yl)-N-(4-fluoro-3-trifluoromethyl-benzyl)-3-carbomethoxy-benzenesulfonamide], the inhibition at 0.2 µM in assay [1] (setting [5]) was found to be 15%.
On to `CCS(=O)(=O)N(CC1CC1)c1sc2ccccc2c1C` [Compound 112, N-(Cyclopropylmethyl)-N-(3-methyl-benzo[b]thiophen-2-yl)-ethanesulfonamide], for which the pIC50 in assay [1] was 7.52. Besides, the inhibition at 0.2 µM in assay [1] (setting [3]) came to 95%.
`Cc1c(N(Cc2ccc(F)c(C(F)(F)F)c2)S(=O)(=O)c2ccc(C(=O)O)cc2)sc2cc(F)ccc12` [Compound 427, N-(6-Fluoro-3-methyl-benzo[b]thiophen-2-yl)-N-(4-fluoro-3-trifluoromethyl-benzyl)-4-carboxy-benzenesulfonamide]: in assay [1], the pIC50 was 8.30. Further, the inhibition at 0.2 µM in assay [1] (setting [3]) was determined as 95%.
Taken in the same sequence, the figures for `COC(=O)c1ccccc1S(=O)(=O)N(Cc1ccc(F)c(C(F)(F)F)c1)c1cc2ccccc2s1` [Compound 139, N-(Benzo[b]thiophen-2-yl)-N-(4-fluoro-3-trifluoromethyl-benzyl)-2-carbomethoxy-benzenesulfonamide] were 7.21 and 91%.
With `CCS(=O)(=O)N(Cc1ccc(OC(F)(F)F)cc1)c1sc2ccccc2c1C` [Compound 42, N-(3-Methyl-benzo[b]thiophen-2-yl)-N-(4-trifluoromethoxy-benzyl)-ethanesulfonamide], the pIC50 in assay [1] was 7.97. Also, the inhibition at 0.5 µM in assay [1] (setting [4]) was 100%.
Take `CCS(=O)(=O)N(Cc1ccnc(F)c1)c1cc2ccccc2s1` [Compound 847, N-(Benzo[b]thiophen-2-yl)-N-(2-fluoro-pyridin-4-ylmethyl)-ethane-sulfonamide]: the inhibition at 0.2 µM in assay [1] (setting [5]) was determined as 33%.
With `O=S(=O)(c1ccccc1)N(Cc1ccc(OC(F)(F)F)cc1)c1sc2ccccc2c1C(F)(F)F` [Compound 325, N-(3-Trifluoromethyl-benzo[b]thiophen-2-yl)-N-(4-trifluoromethoxy-benzyl)-benzenesulfonamide], the pIC50 in assay [1] was 8.30. For the same compound, in assay [1] (setting [3]), the inhibition at 0.2 µM was 102%.
With `Cc1c(N(CCC2CC2)S(=O)(=O)C(F)(F)F)sc2ccccc12` [Compound 665, N-(2-Cyclopropyl-ethyl)-C,C,C-trifluoro-N-(3-methyl-benzo[b]thiophen-2-yl)-methanesulfonamide], the inhibition at 0.2 µM in assay [1] (setting [3]) was found to be 27.9%.
Take `O=S(=O)(c1cccc(F)c1)N(Cc1ccc(F)c(F)c1)c1sc2ccccc2c1Br` [Compound 155, N-(3-Bromo-benzo[b]thiophen-2-yl)-N-(3,4-difluoro-benzyl)-3-fluoro-benzenesulfonamide]: the pIC50 in assay [1] is 8.40. Further, in assay [1] (setting [4]), the inhibition at 0.5 µM is 99%.
For the compound `CCS(=O)(=O)N(Cc1ccc(F)c(F)c1)c1sc2ccccc2c1C(C)=O` [Compound 203], the inhibition at 0.5 µM in assay [1] (read-out: % Inh @ 0.5 (μM)) was found to be 93%.
